Laboratory results: PubChem BioAssay (NCI)
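Method: 48-hour compound exposure of cells in 96-well plates, five concentrations, linear interpolation of endpoints. TGI is the concentration that stops growth completely.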

How the values were obtained:
Experiment in all cases: DTP human tumour cell line panel, 48 h
MOLT-4 leukemia = test system: MOLT-4 leukemia
DU-145 prostate = test system: DU-145 prostate
HOP-92 NSCLC = test system: HOP-92 NSCLC
EKVX NSCLC = test system: EKVX NSCLC
NCI-H460 lung = test system: NCI-H460 lung
786-0 renal = test system: 786-0 renal
T-47D breast = test system: T-47D breast
HCT-15 colon = test system: HCT-15 colon
CAKI-1 renal = test system: CAKI-1 renal
SF-539 CNS = test system: SF-539 CNS
NCI/ADR-RES ovarian = test system: NCI/ADR-RES ovarian
IGROV1 ovarian = test system: IGROV1 ovarian
OVCAR-5 ovarian = test system: OVCAR-5 ovarian
K-562 leukemia = test system: K-562 leukemia
SF-295 CNS = test system: SF-295 CNS
SK-MEL-2 melanoma = test system: SK-MEL-2 melanoma
SK-OV-3 ovarian = test system: SK-OV-3 ovarian
HCT-116 colon = test system: HCT-116 colon
OVCAR-3 ovarian = test system: OVCAR-3 ovarian
ACHN renal = test system: ACHN renal
U251 CNS = test system: U251 CNS
TK-10 renal = test system: TK-10 renal
KM12 colon = test system: KM12 colon
MDA-N = test system: MDA-N
SN12C renal = test system: SN12C renal
UO-31 renal = test system: UO-31 renal
NCI-H23 lung = test system: NCI-H23 lung
UACC-257 melanoma = test system: UACC-257 melanoma
OVCAR-4 ovarian = test system: OVCAR-4 ovarian
HCC-2998 colon = test system: HCC-2998 colon
BT-549 breast = test system: BT-549 breast
HOP-62 NSCLC = test system: HOP-62 NSCLC
M14 melanoma = test system: M14 melanoma
MDA-MB-231 breast = test system: MDA-MB-231 breast
LOX IMVI melanoma = test system: LOX IMVI melanoma
MCF7 breast = test system: MCF7 breast
MALME-3M melanoma = test system: MALME-3M melanoma
SR leukemia = test system: SR leukemia
A549 NSCLC = test system: A549 NSCLC
A498 renal = test system: A498 renal
COLO 205 colon = test system: COLO 205 colon
SW-620 colon = test system: SW-620 colon
SNB-19 CNS = test system: SNB-19 CNS
OVCAR-8 ovarian = test system: OVCAR-8 ovarian
RPMI-8226 leukemia = test system: RPMI-8226 leukemia
CCRF-CEM leukemia = test system: CCRF-CEM leukemia
HL-60(TB) leukemia = test system: HL-60(TB) leukemia
PC-3 prostate = test system: PC-3 prostate
HT29 colon = test system: HT29 colon
MDA-MB-435 = test system: MDA-MB-435
SF-268 CNS = test system: SF-268 CNS
NCI-H522 lung = test system: NCI-H522 lung
UACC-62 melanoma = test system: UACC-62 melanoma
SK-MEL-5 melanoma = test system: SK-MEL-5 melanoma
RXF 393 renal = test system: RXF 393 renal
HS 578T breast = test system: HS 578T breast
SK-MEL-28 melanoma = test system: SK-MEL-28 melanoma

Structure (SMILES): CCOC(=O)c1cc(C)n(CN(CCO)Cn2nc(C(=O)OCC)cc2C)n1
- TGI (MOLT-4 leukemia): > 100 µM
- TGI (DU-145 prostate): 71.5 µM
- TGI (HOP-92 NSCLC): > 100 µM
- TGI (EKVX NSCLC): > 100 µM
- TGI (NCI-H460 lung): > 100 µM
- TGI (786-0 renal): 49.7 µM
- TGI (T-47D breast): 72.3 µM
- TGI (HCT-15 colon): 48.1 µM
- TGI (CAKI-1 renal): > 100 µM
- TGI (SF-539 CNS): 33.6 µM
- TGI (NCI/ADR-RES ovarian): 42.5 µM
- TGI (IGROV1 ovarian): > 100 µM
- TGI (OVCAR-5 ovarian): 54.1 µM
- TGI (K-562 leukemia): 78.3 µM
- TGI (SF-295 CNS): > 100 µM
- TGI (SK-MEL-2 melanoma): 36.8 µM
- TGI (SK-OV-3 ovarian): > 100 µM
- TGI (HCT-116 colon): 37.7 µM
- TGI (OVCAR-3 ovarian): 70.1 µM
- TGI (ACHN renal): 55.6 µM
- TGI (U251 CNS): > 100 µM
- TGI (TK-10 renal): > 100 µM
- TGI (KM12 colon): > 100 µM
- TGI (MDA-N): > 100 µM
- TGI (SN12C renal): 79.2 µM
- TGI (UO-31 renal): 53.2 µM
- TGI (NCI-H23 lung): 53.8 µM
- TGI (UACC-257 melanoma): > 100 µM
- TGI (OVCAR-4 ovarian): > 100 µM
- TGI (HCC-2998 colon): 27.9 µM
- TGI (BT-549 breast): 68.7 µM
- TGI (HOP-62 NSCLC): 62.9 µM
- TGI (M14 melanoma): 44 µM
- TGI (MDA-MB-231 breast): 91.2 µM
- TGI (LOX IMVI melanoma): 70.1 µM
- TGI (MCF7 breast): 73.7 µM
- TGI (MALME-3M melanoma): 96.1 µM
- TGI (SR leukemia): 72.7 µM
- TGI (A549 NSCLC): > 100 µM
- TGI (A498 renal): > 100 µM
- TGI (COLO 205 colon): 41.9 µM
- TGI (SW-620 colon): > 100 µM
- TGI (SNB-19 CNS): > 100 µM
- TGI (OVCAR-8 ovarian): 59.9 µM
- TGI (RPMI-8226 leukemia): 40.3 µM
- TGI (CCRF-CEM leukemia): 42.2 µM
- TGI (HL-60(TB) leukemia): > 100 µM
- TGI (PC-3 prostate): > 100 µM
- TGI (HT29 colon): 47.4 µM
- TGI (MDA-MB-435): > 100 µM
- TGI (SF-268 CNS): > 100 µM
- TGI (NCI-H522 lung): 52.1 µM
- TGI (UACC-62 melanoma): 38.2 µM
- TGI (SK-MEL-5 melanoma): > 100 µM
- TGI (RXF 393 renal): 43.9 µM
- TGI (HS 578T breast): > 100 µM
- TGI (SK-MEL-28 melanoma): > 100 µM
